Results on 87 molecules are retold here after PubChem BioAssay AID1645865 (Buhrlage Lab, Dana-Farber Cancer Institute and Novartis …, 2021).

pIC50: −log10 of the molar value. The source made the active and inactive calls.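 Rule for the calls: active = maximal inhibition of the USP30 enzyme reaching 30% or more across the dose series; inactive = the rest.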 Some results are limits rather than exact numbers.

This test deals with Ubiquitin carboxyl-terminal hydrolase 30 (Homo sapiens) (UniProt Q70CQ3). The test is described as follows: ubiquitin-specific protease 30 DUB inhibitors, concentration-effect, biochemical, validation of primary actives (AID 1645865). Particulars: purified USP30, Ub-rhodamine cleavage, fluorescence, 2 h.
Sequence of Ubiquitin carboxyl-terminal hydrolase 30 (Homo sapiens) (Q70CQ3 whole entry, looked up): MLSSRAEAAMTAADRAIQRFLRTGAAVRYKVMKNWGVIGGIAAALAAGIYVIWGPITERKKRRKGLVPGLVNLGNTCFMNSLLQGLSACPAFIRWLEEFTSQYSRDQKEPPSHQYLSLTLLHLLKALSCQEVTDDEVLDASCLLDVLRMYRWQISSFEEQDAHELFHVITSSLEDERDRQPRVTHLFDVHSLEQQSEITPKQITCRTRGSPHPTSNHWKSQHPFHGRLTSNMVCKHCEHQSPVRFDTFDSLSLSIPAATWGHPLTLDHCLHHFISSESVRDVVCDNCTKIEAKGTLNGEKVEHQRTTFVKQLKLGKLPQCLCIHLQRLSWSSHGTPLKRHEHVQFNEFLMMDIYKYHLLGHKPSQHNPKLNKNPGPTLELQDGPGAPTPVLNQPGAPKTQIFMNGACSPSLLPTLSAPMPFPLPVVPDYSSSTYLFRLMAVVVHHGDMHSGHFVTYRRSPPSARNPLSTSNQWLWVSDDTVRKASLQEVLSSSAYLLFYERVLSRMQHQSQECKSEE

Consider `O=C(COC(=O)c1ccc2[nH]c3c(c2c1)CCCC3)Nc1ccc2c(c1)OCO2`, for which the pIC50 – broadly, −log10 of the IC50, conventionally taken in molar units – was 4.42.
Take `CCn1c(SCc2cccc(C)c2)nnc1-c1cnccn1`: the IC50 (commonly the concentration that inhibits the measured activity by half) is > 50 µM (inactive).
Take `O=C(Nc1cccc(C(F)(F)F)c1)N1CCCn2c(nc3ccccc32)C1`: the pIC50 was 4.71.
For the molecule `CCCCNc1nc2c(-c3ccccc3)nnn2c2ccccc12`, the pIC50 was 5.76.
`CCOc1ccc(NS(=O)(=O)c2ccc(NC(=O)Nc3ccccc3)cc2)cc1`: the negative-log IC50 (pIC50) was 4.76.
On to `Cc1ccc2cc(CNc3ccccc3)c(=O)n(CC(=O)Nc3ccccc3C)c2c1`, for which the pIC50 is 4.39.
As for `O=C(Nc1ccc(Cl)cc1)Nc1cccn2ncnc12`, the pIC50 is 4.73.
As for `CC(C)c1cc2c(c(O)c1O)[C@@]13CCCC(C)(C)[C@@H]1C[C@@H]2OC3=O`, the pIC50 is 4.57.
On to `O=C(c1ccnn1-c1ccc2ccc(-c3ccncc3)cn12)N1CCCC1`, for which the IC50 was > 50 µM (inactive).
As for `CC(=O)Nc1cc(-c2cccc(O)c2)cn2c(-c3cnn(C)c3)cnc12`, the pIC50 is 5.54.
On to `COc1ccc(CCNC(=O)c2noc3c2CCc2sccc2-3)cc1OC`, for which the pIC50 was 4.40.
For `Cn1cccc1C(=O)N1CCCC2(C1)Nc1cccnc1NC2=NC1CCCC1` (configuration not stated), the IC50 was > 50 µM (inactive).
`CC(=O)[C@H]1c2c(c(O)c3c(O)cccc3c2-c2c3c(c(O)c4c(O)cccc24)C(=O)C[C@](C)(O)[C@H]3C(C)=O)C(=O)C[C@]1(C)O`: the IC50 is > 50 µM (inactive).
Take `Cc1cccc(COc2ccc(C3SCC(=O)Nc4n[nH]c(C)c43)cc2)c1` (configuration not stated): the negative logarithm of the IC50 (pIC50) was 5.09.
With `CCC(=O)Nc1ccc(-c2nc(Cn3cc(C)cn3)c(C)o2)cc1`, the IC50 is > 50 µM (inactive).
Turning to `COc1c2nc3ccccc3oc-2cc(=O)c1OC`, the IC50 is > 50 µM (inactive).
For `COc1cc(OC)cc(-c2nc(-c3cn(-c4cccc(F)c4)nn3)no2)c1`, the pIC50 was 6.85.
With `CCCc1nc2sc3c(NC4CCCCC4)ncnc3c2c2c1CCC2`, the IC50 was > 50 µM (inactive).
Turning to `Cc1ccc(C)c(CSC2=NCCN2C(=O)c2ccco2)c1`, the IC50 is > 50 µM (inactive).
As for `CC(C)c1nc2sc3c(N(CCO)CCO)ncnc3c2c2c1COC(C)(C)C2`, the IC50 is > 50 µM (inactive).
As for `CCN(CC)c1nc(F)c2c(c1F)S(=O)(=O)CCN2Cc1cccnc1`, the IC50 was > 50 µM (inactive).
On to `Cc1ccc(C(=O)NCCc2nc(-c3ccc4c(c3)OCO4)n[nH]2)cc1F`, for which the pIC50 was 4.38.
Take `CC1Oc2ccccc2C(=O)N(Cc2ccc([N+](=O)[O-])cc2)C1=O` (configuration not stated): the IC50 was > 50 µM (inactive).
Consider `Cc1cc(Nc2ccc(C(=O)NCc3ccco3)cc2)n2nc(-c3cccnc3)nc2n1`, for which the IC50 is > 50 µM (inactive).
`CC1=C(C)C(c2c(-c3ccc(C)cc3)[nH]c3ccccc23)N(C(C)(C)C)C1=O` (configuration not stated): the pIC50 is 5.73.
In the case of `C/C1=C\CCC(C)C(O)CC(O)C(C)C(O)CCC(C)C(O)CC2(O)OC(CC(OC(=O)CC(=O)O)CC(O)CC(O)CC(O)C(C)C(O)/C=C/C(C)C(C(C)CCCCCCCCN=C(N)N)OC1=O)CC(O)C2O` (configuration not stated), the IC50 was > 50 µM (inactive).
Consider `COc1ccc(CCNC(=O)CCCn2c(=O)c3ccccc3n(CC(=O)OCc3ccccc3)c2=O)cc1OC`, for which the pIC50 is 4.74.
As for `Cc1cc(C(=O)NC2(O)C(=O)c3ccccc3C2=O)n(C)n1`, the pIC50 was 4.69.
For `Cc1ccccc1NC(=O)Cn1cc(-c2nc(C3CC3)no2)ccc1=O`, the IC50 is > 50 µM (inactive).
Turning to `Cc1nc(-c2cccc(NC(=O)C3CCN(c4ccccc4)C3=O)c2)no1` (configuration not stated), the pIC50 is 4.34.
As for `CCCc1nc2sc3c(NCCc4ccc(OC)c(OC)c4)ncnc3c2c2c1CCC2`, the IC50 was > 50 µM (inactive).
On to `CC(C)NS(=O)(=O)c1ccc(CCC(=O)Nc2ccc3c(c2)OCCO3)cc1`, for which the pIC50 was 4.42.
For the molecule `Cc1ccc(NC(=O)c2ccc(N3CCOCC3)nn2)cc1F`, the pIC50 is 4.40.
For the molecule `O=C(O)COc1ccccc1/C=C1\CCc2c1nc1ccccc1c2C(=O)O`, the IC50 was > 50 µM (inactive).
With `Cc1ccc(-n2c(-c3ccccc3)cn3c4c(=O)[nH]c(=O)n(C)c4nc23)cc1C`, the pIC50 was 6.54.
With `CCCc1cc(=O)oc2cc(OCC(=O)NCc3ccc(OC)cc3)ccc12`, the pIC50 was 4.91.
With `O=C(Nc1ccc2c(c1)OCCO2)C1CCN(C(=O)c2cc(-c3cccnc3)n[nH]2)CC1`, the IC50 was > 50 µM (inactive).
In the case of `CC(C)Cc1nc2sc3c(NCc4ccccc4)ncnc3c2c2c1COC(C)(C)C2`, the pIC50 was 5.33.
As to `O=C(c1cc(-c2ccncc2)n[nH]1)N1CCC(C(=O)N2CC=C(c3ccccc3)CC2)CC1`, the pIC50 was 4.48.
`Cc1cc(C(=O)COC(=O)c2ccc[nH]c2=O)c(C)n1-c1ccc2c(c1)OCO2`: the IC50 is > 50 µM (inactive).
Same read-out and setting: the figure for `COc1ccc(NC(=O)c2nnn(-c3cccc(C)c3)c2C)cc1` is > 50 µM (inactive).
In the case of `COc1cccc(N2CCN(C(=O)c3cc(NC(C)=O)cc4nc(C)ccc34)CC2)c1`, the IC50 is > 50 µM (inactive).
On the same count and under the same terms, then `Nc1c(C(=O)c2cccs2)oc2nc(-c3ccccc3)cc(-c3ccco3)c12`, with > 50 µM (inactive).
For `CCOc1ccc(-c2nc(C#N)c(N3CCN(C(=O)c4ccccc4C)CC3)o2)cc1`, the pIC50 is 5.58.
For `O=C(COC(=O)c1ccc2ncsc2c1)Nc1ccccc1F`, the IC50 is > 50 µM (inactive).
For the molecule `O=C(c1cnccn1)N1CCc2[nH]c3ccc(F)cc3c2C1`, the IC50 was > 50 µM (inactive).
Turning to `Cc1cccc(CNC(=O)c2ccc(-c3nnc(-c4cccc(C)c4)o3)cc2)c1`, the pIC50 was 5.25.
With `CCN1CCCC1CN(Cc1cc2cc(OC)ccc2[nH]c1=O)C(=O)NCc1ccccc1` (configuration not stated), the IC50 is > 50 µM (inactive).
Take `CC1CC[C@@]2(NC1)O[C@H]1C[C@H]3[C@@H]4CC=C5C[C@@H](O)CC[C@]5(C)[C@H]4CC[C@]3(C)[C@H]1[C@@H]2C` (some centres not stated): the negative logarithm of the IC50 (pIC50) was 4.89.
The same measure, in the same setting: then `CC1=C(c2ccc(F)cc2)S(=O)(=O)N=C1Nc1ccc(Cl)cc1`, with 4.49.
Still for that read-out and setting: then `O=C(CSc1nc2cc(C(F)(F)F)ccc2s1)NCC(=O)c1ccccc1`, with 5.74.
As to `CC(C)CC(NC(=O)c1ccc(Cl)cc1Cl)c1nc2ccccc2[nH]1` (configuration not stated), the IC50 was > 50 µM (inactive).
As for `O=C(COc1ccc2oc3c(c2c1)CCCC3)Nc1ccccn1`, the pIC50 was 4.51.
For `CCCn1cc(C(=O)N2CCC3(CC2)CC2(CO3)Nc3ccccc3-n3cccc32)c(C)n1` (configuration not stated), the IC50 is > 50 µM (inactive).
With `CCCN1C=NS(=O)(=O)c2cc(C(=O)Nc3ccc(OC)c(Cl)c3)ccc21`, the pIC50 is 4.90.
On the same count and under the same terms, then `c1ccc(Cc2nn3c(-c4cccnc4)nnc3c3ccccc23)cc1`, with 6.18.
`O=C(OCc1cccc(Cl)c1)c1ccc2ccccc2n1`: the IC50 is > 50 µM (inactive).
Turning to `CCc1nc(SCC(=O)Nc2ccccc2Cl)c2oc3ccccc3c2n1`, the pIC50 was over 7.30.
Turning to `O=C(NCc1ccc(Br)cc1)c1ccc(-c2cccnc2)nc1`, the negative-log IC50 (pIC50) is 4.52.
With `CCOc1ccccc1C(=O)Nc1ccc2c(c1)Sc1ncccc1C(=O)N2C`, the IC50 was > 50 µM (inactive).
`COc1cnc(-c2ccccn2)nc1Sc1ccccc1Cl`: the pIC50 is 5.54.
Regarding `COc1cccc(-c2nc3cnccn3c2NCc2ccc3c(c2)OCO3)c1`, the IC50 was > 50 µM (inactive).
Turning to `CCn1c(SCC(=O)c2c(N)n(CC(C)C)c(=O)n(C)c2=O)nnc1-c1ccccc1`, the pIC50 was 5.01.
Take `Oc1sc(C=Nc2cc(Cl)ccc2Cl)c2ccccc12`: the pIC50 was 6.01.
As for `COc1ccc(N2C(=O)[C@@H]3[C@H]4c5ccccc5C=CN4C(C(=O)Nc4ccc5c(c4)OCO5)[C@@H]3C2=O)cc1` (some centres not stated), the IC50 was > 50 µM (inactive).
On to `COc1ccc2nc(NC(=O)C(CC(C)C)NS(=O)(=O)c3ccc4c(c3)CCN4C(C)=O)sc2c1` (configuration not stated), for which the pIC50 is 4.51.
Turning to `O=C(NCc1ccc2c(c1)OCO2)c1cc(-c2cc(Cl)ccc2O)n[nH]1`, the pIC50 was 5.55.
For `CCCCc1ccc(-c2cc(C(=O)NCCN3CCOCC3)c3cc(Br)ccc3n2)cc1`, the pIC50 was 5.64.
In the case of `COc1cc2c(cc1NC(=O)c1ccc(-n3cnnn3)cc1)oc1ccccc12`, the pIC50 was 6.66.
On to `O=C(COc1ccc2c(c1)CCC2)Nc1ccc2c(c1)CCC2`, for which the pIC50 is 4.58.
On to `Cc1cc(=O)n(CC(=O)Nc2ccccc2C)c(Nc2ccc(F)cc2)n1`, for which the pIC50 is 4.95.
On to `Cc1ccc(NC2=NC(c3ccco3)n3c(nc(C)cc3=O)N2)c(C)c1` (configuration not stated), for which the negative logarithm of the IC50 (pIC50) is 5.54.
As for `O=C(Nc1ccc(F)c(Cl)c1)c1ccc(N2CCCCS2(=O)=O)cc1Cl`, the IC50 was > 50 µM (inactive).
On to `COc1ccc(/C=C/c2ccnc3nc(-n4cccc4)nn23)cc1`, for which the IC50 is > 50 µM (inactive).
As for `COc1ccc(S(=O)(=O)N2CCc3ccccc32)cc1C(=O)Nc1ccc2[nH]c(=O)[nH]c2c1`, the pIC50 is 5.63.
For the molecule `COc1ccc(-c2nc(SCC(=O)Nc3ccc(C(C)=O)cc3)n[nH]2)cc1`, the pIC50 was 4.96.
With `CCC[C@H]1O[C@@H]2CC(=O)O[C@@H]2C2=C1C(=O)c1c(O)cccc1C2=O`, the IC50 is > 50 µM (inactive).
As to `Cc1ccc(C)c(-n2c(C)cc(/C=C3/C(=N)N4C(c5ccc(F)cc5)=CSC4=NC3=O)c2C)c1`, the IC50 was > 50 µM (inactive).
For the molecule `O=C(Nc1ccccc1Sc1ncc(-c2ccc(Cl)cc2)cn1)c1ccco1`, the pIC50 is 5.40.
Turning to `COc1ccc(OC)c(C2CC(=O)Nc3n[nH]c(-c4ccccc4)c32)c1` (configuration not stated), the pIC50 was 4.59.
On to `Cc1ccc2cc3c(nc2n1)CCN(Cc1ccc(F)cc1)C3`, for which the IC50 was > 50 µM (inactive).
For `Cc1ccc2c(c1)c(=O)c(C(=O)c1ccc(F)cc1)cn2CC(=O)Nc1ccc2c(c1)OCCO2`, the IC50 is > 5 µM (inactive).
With `O=c1c(-c2nc(C3CC3)no2)cccn1Cc1c(F)cccc1Cl`, the IC50 was > 50 µM (inactive).
As to `Cc1ccc(-n2nnc(C(=O)NC3CCCCC3)c2N)cc1`, the negative logarithm of the IC50 (pIC50) was 4.67.
As for `Cc1cccc(N2CCN(C(=O)c3nnn(-c4ccc(F)cc4)n3)CC2)c1`, the IC50 is > 50 µM (inactive).
As to `CC1OC(CC(=O)O)CC23OC12C(=O)c1c(O)cccc1C3=O` (configuration not stated), the IC50 is > 50 µM (inactive).
With `Cc1cccc(N2C(=O)/C(=C\c3ccc4c(c3)OCCO4)c3ccccc3C2=O)c1`, the IC50 was > 50 µM (inactive).
